The values that follow come from PMC11345836 (Journal of Medicinal Chemistry, 2024).

The conditions of data set [1]: rat, p.o. 10 mg/kg, fed.
A short description of data set [2]: Rat liver microsome stability. The following applies: for microsomal CLint: rat, microsomes; for predicted hepatic clearance, rat: scaled from rat liver microsomes.
Data set [3] in a line: NMR EXSY rotamer exchange kinetics. The following applies: for Rotamer exchange in EXSY: 300 ms mixing time at 298 K; for Torsion Rotation t1/2: extrapolated to 298 K.
For data set [4] the following is noted: cited from earlier work.
For data set [5] the following is noted: 0.3–10 μM; cited from earlier work.
For data set [6] the following is noted: cited from earlier work. This is another data set of the same source.
For data set [7] the following is noted: 2–200 μM; cited from earlier work.
For data set [8] the following is noted: 0.3–10 μM; cited from earlier work. This is another data set of the same source.
For data set [9] the following is noted: cited from earlier work. The source holds these as a separate data set.
The conditions of data set [10]: cited from earlier work. This is another data set of the same source.
Data set [11] can be described thus: Solubility of solid forms. Format: physicochemical.
For data set [12] the following is noted: cited from earlier work. The source holds these as a separate data set.
For data set [13] the following is noted: 0.3–10 μM; cited from earlier work. This is another data set of the same source.
The nature of data set [14]: Shake-flask LogD. Format: physicochemical.

In brackets after ≈: the same amount, converted by molar mass. Where two headings read alike, the source gives them in different places.

What is called microsomal CLint is the capacity of the preparation to metabolise the compound, expressed as a volume cleared per time. `CC(C)(C)[C@H](NC(=O)C(F)(F)F)C(=O)N1C[C@H](OC(F)F)C[C@H]1C(=O)N[C@H](C#N)C[C@@H]1CCNC1=O` [Compound 6, (2S,4R)-N-((S)-1-Cyano-2-((S)-2-oxopyrrolidin-3-yl)ethyl)-4-(difluoromethoxy)-1-((S)-3,3-dimethyl-2-(2,2,2-trifluoroacetamido)butanoyl)pyrrolidine-2-carboxamide]: in data set [1] (50% ASD), the “Fa × Fg” value was 7.2 (7.3, 6.9) % and the “Oral F” value was 4.2 (4.3, 4.1) %. The “Fa × Fg” value in data set [1] (crystalline, suspension) is recorded as 20.2 (20.0, 20.4) %. In [2], the microsomal CLint is under 5.8 µL/min/mg and the “predicted hepatic clearance, rat” value is on record as under 11 mL/min/kg.
Consider `COC(=O)N[C@H](C(=O)N1C[C@H](C(F)(F)F)C[C@H]1C(=O)N[C@H](C#N)C[C@@H]1CCCNC1=O)C(C)C` [Compound 12, Methyl ((S)-1-((2S,4R)-2-(((S)-1-cyano-2-((S)-2-oxopiperidin-3-yl)ethyl)carbamoyl)-4-(trifluoromethyl)pyrrolidin-1-yl)-3-methyl-1-oxobutan-2-yl)carbamate], for which, in data set [1] (50% ASD), the “Fa × Fg” value is reported as 15.8 (17.1, 14.5) % and the “Oral F” value is 8.1 (8.8, 7.5) %. For the same molecule, in [1] (amorphous, solution), the “Fa × Fg” value is listed as 14.7 (12.3, 17.6) % and the “Oral F” value is 7.7 (6.3,9.0) %. Further, in data set [2], the microsomal CLint is under 5.8 µL/min/mg and the “predicted hepatic clearance, rat” value was under 11 mL/min/kg.
As usually defined, the solubility is the dissolved amount per volume that the medium holds. Regarding `CC(C)(C)[C@H](NC(=O)C(F)(F)F)C(=O)N1C[C@H]2[C@@H]([C@H]1C(=O)N[C@H](C#N)C[C@@H]1CCNC1=O)C2(C)C` [Compound 1, nirmatrelvir], in [3] (Form: Anhydrous), the “Energy of Rotation” value was found to be 20.4 kcal/mol, the “Rotamer exchange in EXSY” value is on record as “No” and the “Torsion Rotation t1/2” value is 10.54 min. Besides, in [3] (Form: MTBE), the “Energy of Rotation” value is recorded as 20.2 kcal/mol, the “Rotamer exchange in EXSY” value is “No” and the “Torsion Rotation t1/2” value is reported as 10.99 min. Besides, in data set [4], the “CLint,app, substrate depletion in HLM” value is 28.8 µL/min/mg. Also, the “predicted hepatic clearance, human” value in [4] (from substrate depletion in HLM) is listed as 6.3 mL/min/kg. Besides, the “fu,p monkey plasma” value in [5] is listed as 0.39–0.50. In addition, the “observed CLp, rats” value in [6] is reported as 22.7 mL/min/kg. In addition, in [7], the “fu,p dog plasma” value is recorded as 0.024–0.69. Further, the “fu,p human plasma” value in data set [8] is given as 0.30–0.33. The “observed CLp, monkeys” value in data set [9] was 15.8 mL/min/kg. The “predicted hepatic clearance, monkeys” value in data set [10] was 25 mL/min/kg. Besides, in data set [11] (Form: Anhydrous), the concentration in solution (solubility) came to 1200 µg/mL (≈ 2.4 mM). Besides, the solubility in data set [11] (Form: MTBE) worked out at 7210 µg/mL (≈ 14.4 mM). For the same molecule, in data set [12], the “predicted hepatic clearance, rats” value is listed as 5.8 mL/min/kg. Further, the “fu,p rat plasma” value in data set [13] is 0.47–0.49.
For orientation: logD means the decadic logarithm of the distribution of all forms, ionised or not, between an organic phase and buffer at a given pH. With `Cc1cccc(C)c1OCC(=O)N[C@@H](Cc1ccccc1)[C@@H](O)C[C@H](Cc1ccccc1)NC(=O)[C@H](C(C)C)N1CCCNC1=O` [lopinavir], the log distribution coefficient (logD) in [14] stood at 3.8.
On the same count and under the same terms, under `Cc1cnc(C(=O)N[C@H]2CCCCC/C=C\[C@@H]3C[C@@]3(C(=O)NS(=O)(=O)C3CC3)NC(=O)[C@@H]3C[C@@H](Oc4nc5ccccc5c5ccccc45)CN3C2=O)cn1` [paritaprevir] stands 3.1.
`COC(=O)N[C@H](C(=O)N1C[C@H](OC(F)(F)F)C[C@H]1C(=O)N[C@H](C#N)C[C@@H]1CCNC1=O)C(C)(C)C` [Compound 5, Methyl ((S)-1-((2S,4R)-2-(((S)-1-cyano-2-((S)-2-oxopyrrolidin-3-yl)ethyl)carbamoyl)-4-(trifluoromethoxy)pyrrolidin-1-yl)-3,3-dimethyl-1-oxobutan-2-yl)carbamate]: in [1] (amorphous, solution), the “Fa × Fg” value is listed as 12.2 (11.4, 13.2) % and the “Oral F” value is 8.6 (8.0, 9.2) %. In data set [2], the microsomal CLint is under 5.8 µL/min/mg and the “predicted hepatic clearance, rat” value is under 11 mL/min/kg.
